# According to paper PMC7126098 (Bioorganic & Medicinal Chemistry, 2019):
# Assays:
# [1] = system: herpes simplex virus-1 (KOS strain); experiment: Inhibition of virus-induced cytopathicity, HSV-1; type: cell-based; conditions: anti-HSV screening in HEL cells
# [2] = system: herpes simplex virus-2 (G strain); experiment: Inhibition of virus-induced cytopathicity, HSV-2; type: cell-based; conditions: Human alphaherpesvirus 2, HEL, read-out: EC50 HSV-2
# [3] = system: eight human cancer cell lines; experiment: Cytostatic activity against panel of human cell lines; type: cell-based; conditions: for IC50: Homo sapiens, read-out: cytostatic activity (IC50 range over cell lines)
# [4] = Stability towards light and air; type: physicochemical
# [5] = system: pancreatic adenocarcinoma Capan-1 cell line; experiment: Cytostatic activity against Capan-1; type: cell-based, human
# [6] = system: human cytomegalovirus (HCMV) (AD-169 strain and Davis strain); experiment: Inhibition of virus-induced cytopathogenicity, HCMV in HEL cells; type: cell-based
# [7] = system: HSV-1 TK; conditions: relative to ACV; cited from earlier work
# [8] = system: cell culture; conditions: at concentrations up to 100 µg/mL; cited from earlier work
compound,measurement,setting,value
"O=c1c2ncn(CCC(CO)CO)c2nc2[nH]c(-c3ccccc3)cn12 [9a, 3-(4-Hydroxy-3-(hydroxymethyl)butyl)-6-phenyl-3,5-dihydro-9H-imidazo[1,2-a]purin-9-one]",antiviral activity (in words),[1],inactive
"O=c1c2ncn(CCC(CO)CO)c2nc2[nH]c(-c3ccc(F)cc3)cn12 [9b, 6-(4-Fluorophenyl)-3-(4-hydroxy-3-(hydroxymethyl)butyl)-3,5-dihydro-9H-imidazo[1,2-a]purin-9-one]",EC50,[2],28 to 40.9 µM
"O=c1c2ncn(CCC(CO)CO)c2nc2[nH]c(-c3ccc(Cl)cc3)cn12 [9c, 6-(4-Chlorophenyl)-3-(4-hydroxy-3-(hydroxymethyl)butyl)-3,5-dihydro-9H-imidazo[1,2-a]purin-9-one]",antiviral activity (in words),[1],inactive
"Cc1ccc(-c2cn3c(=O)c4ncn(CCC(CO)CO)c4nc3[nH]2)cc1 [9d, 3-(4-Hydroxy-3-(hydroxymethyl)butyl)-6-(p-tolyl)-3,5-dihydro-9H-imidazo[1,2-a]purin-9-one]",antiviral activity (in words),[1],inactive
"O=c1c2ncn(CCC(CO)CO)c2nc2[nH]c(-c3ccc(C(F)(F)F)cc3)cn12 [9e, 3-(4-Hydroxy-3-(hydroxymethyl)butyl)-6-(4-(trifluoromethyl)phenyl)-3,5-dihydro-9H-imidazo[1,2-a]purin-9-one]",IC50,[3],12.5 to 76.1 µM
same,EC50,[2],28 to 40.9 µM
"O=c1c2ncn(CCC(CO)CO)c2nc2[nH]c(-c3ccc4c(c3)OCO4)cn12 [9i, 6-(Benzo[d][1,3]dioxol-5-yl)-3-(4-hydroxy-3-(hydroxymethyl)butyl)-3,5-dihydro-9H-imidazo[1,2-a]purin-9-one]",EC50,[2],28 to 40.9 µM
"O=c1c2ncn(CCC(CO)CO)c2nc2[nH]c(-c3ccc(Oc4ccccc4)cc3)cn12 [9j, 3-(4-Hydroxy-3-(hydroxymethyl)butyl)-6-(4-phenoxyphenyl)-3,5-dihydro-9H-imidazo[1,2-a]purin-9-one]",IC50,[3],16.9 to 90.4 µM
same,antiviral activity (in words),[1],inactive
"O=c1c2ncn(CCCCO)c2nc2[nH]c(-c3ccc(C(F)(F)F)cc3)cn12 [10e, 3-(4-Hydroxybutyl)-6-(4-(trifluoromethyl)phenyl)-3,5-dihydro-9H-imidazo[1,2-a]purin-9-one]",cytostatic activity (in words),[3]; range of cancer cell lines,most effective
"O=c1c2ncn(CCCCO)c2nc2[nH]c(-c3cccs3)cn12 [10h, 3-(4-Hydroxybutyl)-6-(thiophen-2-yl)-3,5-dihydro-9H-imidazo[1,2-a]purin-9-one]",stability towards light and air,[4],stable enough to be collected safely
"Nc1nc2c(ncn2CCCCO)c(=O)[nH]1 [HBG, hydroxybutylguanine]",inhibition of proliferation of Capan-1 (in words),[5],slightly inhibited
same,activity against HCMV (in words),[6],inactive
same,affinity for HSV-1 TK (in words),[7],higher affinity for HSV-1 TK than ACV
"Nc1nc2c(ncn2CCC(CO)CO)c(=O)[nH]1 [PCV, penciclovir]",inhibition of proliferation of Capan-1 (in words),[5],slightly inhibited
same,toxicity in cell culture,[8],did not exhibit any toxicity
same,activity against HCMV (in words),[6],not inhibitory
